Assay results taken from patent US11180462B2, “Microbiocidal oxadiazole derivatives” (SYNGENTA PARTICIPATIONS AG, priority 2015, dated 2021).

Assays:
[1] = test system: Puccinia recondita f. Sp. Tritici; assay: Fungicidal activity against Puccinia recondita f. sp. tritici / wheat / leaf disc preventative (brown rust); assay type: in vivo; details: foliar, 200 ppm in the applied formulation, wheat leaf segments, preventative, compared to untreated control leaf disks, read-out: disease control
In short: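 Percent disease control relative to untreated check segments is scored once disease develops, 7 to 9 days after application. Wheat cv. Kanzler segments receive compound spray (200 ppm in formulation) one day before spore inoculation, then sit at 19° C. and 75% rh under 12 h light/12 h dark.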

[2] = test system: Puccinia recondita f. Sp. Tritici; assay: Fungicidal activity against Puccinia recondita f. sp. tritici / wheat / leaf disc curative (brown rust); assay type: in vivo; details: foliar, 24 h, 200 ppm in the applied formulation, wheat leaf segments, curative (applied 1 day after inoculation), compared to untreated control leaf disks, read-out: disease control
In short: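 Curative leaf-segment test: compound diluted in water applied 1 day after spore inoculation of cv. Kanzler wheat segments on agar. Conditions 19° C, 75% RH, 12 h/12 h light cycle. Read-out: % disease control relative to untreated check, 6 to 8 days after application.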

[3] = test system: Glomerella lagenarium (Colletotrichum lagenarium); assay: Fungicidal activity against Glomerella lagenarium (Colletotrichum lagenarium) liquid culture / cucumber / preventative (anthracnose); assay type: cell-based; details: Colletotrichum orbiculare; 20 ppm in the applied formulation; liquid culture (PDB), growth inhibition measured photometrically after 3 to 4 days; compared to untreated control; read-out: disease control
In short: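 Percent activity against the untreated check was derived from photometric growth measurements made 2 to 7 days after conidia in potato dextrose broth were combined with compound at 20 ppm. Cultures were kept dark at 24 °C and 96% humidity.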

COCCOCC(=O)N(CCOC)Cc1ccc(-c2noc(C(F)(F)F)n2)cc1 [Compound 1.340, 2-(2-methoxyethoxy)-N-(2-methoxyethyl)-N-[[4-[5-(trifluoromethyl)-1,2,4-oxadiazol-3-yl]phenyl]methyl]-acetamide]
≥ 80%: pest or weed control at 200 ppm [1] | pest or weed control at 200 ppm [2] | inhibition of growth at 20 ppm [3]

C#CC(=O)N(CCOC)Cc1ccc(-c2noc(C(F)(F)F)n2)cc1 [Compound 1.347, N-(2-methoxyethyl)-N-[[4-[5-(trifluoromethyl)-1,2,4-oxadiazol-3-yl]phenyl]methyl]prop-2-ynamide]
≥ 80%: pest or weed control at 200 ppm [1] | pest or weed control at 200 ppm [2] | inhibition of growth at 20 ppm [3]

COCCN(Cc1ccc(-c2noc(C(F)(F)F)n2)cc1)C(=O)COC(C)=O [Compound 1.348, [2-[2-methoxyethyl-[[4-[5-(trifluoromethyl)-1,2,4-oxadiazol-3-yl]phenyl]methyl]-amino]-2-oxo-ethyl] acetate]
≥ 80%: pest or weed control at 200 ppm [1] | pest or weed control at 200 ppm [2] | inhibition of growth at 20 ppm [3]

COCCN(Cc1ccc(-c2noc(C(F)(F)F)n2)cc1)C(=O)c1ccoc1 [Compound 1.362, N-(2-methoxyethyl)-N-[[4-[5-(trifluoromethyl)-1,2,4-oxadiazol-3-yl]phenyl]methyl]-furan-3-carboxamide]
≥ 80%: pest or weed control at 200 ppm [1] | pest or weed control at 200 ppm [2] | inhibition of growth at 20 ppm [3]

COCCN(Cc1ccc(-c2noc(C(F)(F)F)n2)cc1)C(C)=O [Compound 1.364, N-(2-methoxyethyl)-N-[[4-[5-(trifluoromethyl)-1,2,4-oxadiazol-3-yl]phenyl]methyl]-acetamide]
≥ 80%: pest or weed control at 200 ppm [1] | pest or weed control at 200 ppm [2] | inhibition of growth at 20 ppm [3]

CCCCC(=O)N(CCOC)Cc1ccc(-c2noc(C(F)(F)F)n2)cc1 [Compound 1.366, N-(2-methoxyethyl)-N-[[4-[5-(trifluoromethyl)-1,2,4-oxadiazol-3-yl]phenyl]methyl]-pentanamide]
≥ 80%: pest or weed control at 200 ppm [1] | pest or weed control at 200 ppm [2] | inhibition of growth at 20 ppm [3]

CC=CC(=O)N(Cc1ccc(-c2noc(C(F)(F)F)n2)cc1)C(C)CC (stereo not drawn) [Compound 1.370, N-sec-butyl-N-[[4-[5-(trifluoromethyl)-1,2,4-oxadiazol-3-yl]phenyl]methyl] but-2-enamide]
≥ 80%: pest or weed control at 200 ppm [1] | pest or weed control at 200 ppm [2] | inhibition of growth at 20 ppm [3]

CCC(C)N(Cc1ccc(-c2noc(C(F)(F)F)n2)cc1)C(=O)C1CC1(F)F (stereo not drawn) [Compound 1.371, 2,2-difluoro-N-sec-butyl-N-[[4-[5-(trifluoromethyl)-1,2,4-oxadiazol-3-yl]phenyl]methyl]-cyclopropane-carboxamide]
≥ 80%: pest or weed control at 200 ppm [1] | pest or weed control at 200 ppm [2] | inhibition of growth at 20 ppm [3]

CCCC(=O)N(Cc1ccc(-c2noc(C(F)(F)F)n2)cc1)C(C)CC (stereo not drawn) [Compound 1.373, N-sec-butyl-N-[[4-[5-(trifluoromethyl)-1,2,4-oxadiazol-3-yl]phenyl]methyl]-butanamide]
≥ 80%: pest or weed control at 200 ppm [1] | pest or weed control at 200 ppm [2] | inhibition of growth at 20 ppm [3]

CC=C(C)C(=O)N(Cc1ccc(-c2noc(C(F)(F)F)n2)cc1)C(C)CC (stereo not drawn) [Compound 1.374, 2-methyl-N-sec-butyl-N-[[4-[5-(trifluoromethyl)-1,2,4-oxadiazol-3-yl]phenyl]methyl]but-2-enamide]
≥ 80%: pest or weed control at 200 ppm [1] | pest or weed control at 200 ppm [2] | inhibition of growth at 20 ppm [3]

CCC(C)N(Cc1ccc(-c2noc(C(F)(F)F)n2)cc1)C(=O)CC1CC1 (stereo not drawn) [Compound 1.375, 2-cyclopropyl-N-sec-butyl-N-[[4-(5-(trifluoromethyl)-1,2,4-oxadiazol-3-yl]phenyl]methyl]-acetamide]
≥ 80%: pest or weed control at 200 ppm [1] | pest or weed control at 200 ppm [2] | inhibition of growth at 20 ppm [3]

CCC(C)N(Cc1ccc(-c2noc(C(F)(F)F)n2)cc1)C(=O)C1CSC1 (stereo not drawn) [Compound 1.378, N-sec-butyl-N-[[4-[5-(trifluoromethyl)-1,2,4-oxadiazol-3-yl]phenyl]methyl]-thietane-3-carboxamide]
≥ 80%: pest or weed control at 200 ppm [1] | pest or weed control at 200 ppm [2] | inhibition of growth at 20 ppm [3]

CCC(C)N(Cc1ccc(-c2noc(C(F)(F)F)n2)cc1)C(=O)C1(C)CC1 (stereo not drawn) [Compound 1.388, 1-methyl-N-sec-butyl-N-[[4-[5-(trifluoromethyl)-1,2,4-oxadiazol-3-yl]phenyl]methyl]-cyclopropane-carboxamide]
≥ 80%: pest or weed control at 200 ppm [1] | pest or weed control at 200 ppm [2] | inhibition of growth at 20 ppm [3]

C#CC(=O)N(Cc1ccc(-c2noc(C(F)(F)F)n2)cc1)C(C)CC (stereo not drawn) [Compound 1.391, N-sec-butyl-N-[[4-[5-(trifluoromethyl)-1,2,4-oxadiazol-3-yl]phenyl]methyl]-prop-2-ynamide]
≥ 80%: pest or weed control at 200 ppm [1] | pest or weed control at 200 ppm [2] | inhibition of growth at 20 ppm [3]

CCC(C)N(Cc1ccc(-c2noc(C(F)(F)F)n2)cc1)C(=O)C=CC(C)=O (stereo not drawn) [Compound 1.396, 4-oxo-N-sec-butyl-N-[[4-[5-(trifluoromethyl)-1,2,4-oxadiazol-3-yl]phenyl]methyl]-pent-2-enamide]
≥ 80%: pest or weed control at 200 ppm [1] | pest or weed control at 200 ppm [2] | inhibition of growth at 20 ppm [3]

CCC(C)N(Cc1ccc(-c2noc(C(F)(F)F)n2)cc1)C(=O)C1CCCN1C(C)=O (stereo not drawn) [Compound 1.400, 1-acetyl-N-sec-butyl-N-[[4-[5-(trifluoromethyl)-1,2,4-oxadiazol-3-yl]phenyl]methyl]-pyrrolidine-2-carboxamide]
≥ 80%: pest or weed control at 200 ppm [1] | pest or weed control at 200 ppm [2] | inhibition of growth at 20 ppm [3]

CCC(C)N(Cc1ccc(-c2noc(C(F)(F)F)n2)cc1)C(=O)C1CC1 (stereo not drawn) [Compound 1.406, N-sec-butyl-N-[[4-[5-(trifluoromethyl)-1,2,4-oxadiazol-3-yl]phenyl]methyl]-cyclopropane-carboxamide]
≥ 80%: pest or weed control at 200 ppm [1] | pest or weed control at 200 ppm [2] | inhibition of growth at 20 ppm [3]

O=C(C1CCCCO1)N(Cc1ccc(-c2noc(C(F)(F)F)n2)cc1)CC1CCCO1 (stereo not drawn) [Compound 1.411, N-(tetrahydrofuran-2-ylmethyl)-N-[[4-[5-(trifluoromethyl)-1,2,4-oxadiazol-3-yl]phenyl]methyl]-tetrahydropyran-2-carboxamide]
≥ 80%: pest or weed control at 200 ppm [1] | pest or weed control at 200 ppm [2] | inhibition of growth at 20 ppm [3]

COCC(=O)N(Cc1ccc(-c2noc(C(F)(F)F)n2)cc1)CC1CCCO1 (stereo not drawn) [Compound 1.415, 2-methoxy-N-(tetrahydrofuran-2-ylmethyl)-N-[[4-[5-(trifluoromethyl)-1,2,4-oxadiazol-3-yl]phenyl]methyl]-acetamide]
≥ 80%: pest or weed control at 200 ppm [1] | pest or weed control at 200 ppm [2] | inhibition of growth at 20 ppm [3]

CC=C(C)C(=O)N(Cc1ccc(-c2noc(C(F)(F)F)n2)cc1)CC1CCCO1 (stereo not drawn) [Compound 1.417, 2-methyl-N-(tetrahydrofuran-2-ylmethyl)-N-[[4-[5-(trifluoromethyl)-1,2,4-oxadiazol-3-yl]phenyl]methyl]but-2-enamide]
≥ 80%: pest or weed control at 200 ppm [1] | pest or weed control at 200 ppm [2] | inhibition of growth at 20 ppm [3]

O=C(C1CSC1)N(Cc1ccc(-c2noc(C(F)(F)F)n2)cc1)CC1CCCO1 (stereo not drawn) [Compound 1.421, N-(tetrahydrofuran-2-ylmethyl)-N-[[4-[5-(trifluoromethyl)-1,2,4-oxadiazol-3-yl]phenyl]methyl]-thietane-3-carboxamide]
≥ 80%: pest or weed control at 200 ppm [1] | pest or weed control at 200 ppm [2] | inhibition of growth at 20 ppm [3]

COCCC(=O)N(Cc1ccc(-c2noc(C(F)(F)F)n2)cc1)CC1CCCO1 (stereo not drawn) [Compound 1.422, 3-methoxy-N-(tetrahydrofuran-2-ylmethyl)-N-[[4-[5-(trifluoromethyl)-1,2,4-oxadiazol-3-yl]phenyl]methyl]-propanamide]
≥ 80%: pest or weed control at 200 ppm [1] | pest or weed control at 200 ppm [2] | inhibition of growth at 20 ppm [3]

CCOCC(=O)N(Cc1ccc(-c2noc(C(F)(F)F)n2)cc1)CC1CCCO1 (stereo not drawn) [Compound 1.426, 2-ethoxy-N-(tetrahydrofuran-2-ylmethyl)-N-[[4-[5-(trifluoromethyl)-1,2,4-oxadiazol-3-yl]phenyl]methyl]-acetamide]
≥ 80%: pest or weed control at 200 ppm [1] | pest or weed control at 200 ppm [2] | inhibition of growth at 20 ppm [3]

COCCOCC(=O)N(Cc1ccc(-c2noc(C(F)(F)F)n2)cc1)CC1CCCO1 (stereo not drawn) [Compound 1.427, 2-(2-methoxyethoxy)-N-(tetrahydrofuran-2-ylmethyl)-N-[[4-[5-(trifluoromethyl)-1,2,4-oxadiazol-3-yl]phenyl]methyl]-acetamide]
≥ 80%: pest or weed control at 200 ppm [1] | pest or weed control at 200 ppm [2] | inhibition of growth at 20 ppm [3]

CC1(C(=O)N(Cc2ccc(-c3noc(C(F)(F)F)n3)cc2)CC2CCCO2)CC1 (stereo not drawn) [Compound 1.431, 1-methyl-N-(tetrahydrofuran-2-ylmethyl)-N-[[4-[5-(trifluoromethyl)-1,2,4-oxadiazol-3-yl]phenyl]methyl]-cyclopropane-carboxamide]
≥ 80%: pest or weed control at 200 ppm [1] | pest or weed control at 200 ppm [2] | inhibition of growth at 20 ppm [3]
